Values of other authors, collected in patent US6476042B1, “Combination therapy for the treatment of migraine” (Pfizer Inc., priority 1999, dated 2002).

Test system: carotid vascular resistance
Conditions: anaesthetized dog

Structure (SMILES): CNS(=O)(=O)Cc1ccc2[nH]cc(CCN(C)C)c2c1 [Sumatriptan, sumatriptan]
- effect on carotid vascular resistance: selective increase
